Each compound was assayed on HT-29 (assay: Antiproliferative activity against human HT29 cells).
Assay type: functional

| Compound | GI50 [µM] |
| --- | --- |
| CCC(C)c1ccc(NC(=O)N[C@H](C)CCl)cc1 (stereo partly specified) | 8.9 |
| CCC(C)c1ccc(NC(=O)N[C@H](CC)CCl)cc1 (stereo partly specified) | 56 |
| O=C(NCCCl)Nc1ccc2c(c1)-c1ccccc1C2 | 13 |
| CC(C)(C)c1ccc(NC(=O)NCCCl)cc1 | 9.1 |
| C[C@@H](CCl)NC(=O)Nc1ccc2c(c1)CCC2 | 100 |
| CC[C@@H](CCl)NC(=O)Nc1ccc(I)cc1 | 51 |
| CCC(C)c1ccc(NC(=O)N[C@@H](CC)CCl)cc1 (stereo partly specified) | 109 |
| CC(C)c1ccc(NC(=O)N[C@@H](C)CCl)cc1 | 69 |
| CC[C@H](CCl)NC(=O)Nc1ccc(C(C)(C)C)cc1 | 56 |
| CCC(C)c1ccc(NC(=O)N[C@@H](C)CCl)cc1 (stereo partly specified) | 54 |
| O=C(NCCCl)Nc1ccc2ccccc2c1 | 5.5 |
| O=C(NCCCl)Nc1ccc2c(c1)CCC2 | 10 |
| C[C@@H](CCl)NC(=O)Nc1ccc2c(c1)-c1ccccc1C2 | 28 |
| C[C@H](CCl)NC(=O)Nc1ccc(C(C)(C)C)cc1 | 8.9 |
| C[C@@H](CCl)NC(=O)Nc1ccc(C(C)(C)C)cc1 | 55 |
| CC(C)c1ccc(NC(=O)N[C@H](C)CCl)cc1 | 1.1 |
| C[C@@H](CCl)NC(=O)Nc1ccc2ccccc2c1 | 181 |
| C[C@H](CCl)NC(=O)Nc1ccc2ccccc2c1 | 4.9 |
| C[C@@H](CCl)NC(=O)Nc1ccc(I)cc1 | 49 |
| O=C(NCCCl)Nc1ccc2[nH]ncc2c1 | 48 |
| CCNC(=O)Nc1ccc(C(C)CC)cc1 (stereo unspecified) | 132 |
| CCc1ccc(NC(=O)NCCCl)cc1 | 6.4 |
| Cc1cc(C)cc(NC(=O)NCCCl)c1 | 20 |
| CCNC(=O)Nc1ccc(C(C)(C)C)cc1 | 83 |
| CCCCCCc1ccc(NC(=O)NCCCl)cc1 | 12 |
| O=C(NCCCl)Nc1cccc2c1CCCC2 | 400 |
| CNC(=O)Nc1ccc(C(C)(C)C)cc1 | 400 |

| Compound | GI50 [µM] |
| --- | --- |
| Cc1ccc(NC(=O)NCCCl)cc1C | 5.4 |
| CC(C)Cc1ccc(NC(=O)NCCCl)cc1 | 21 |
| CCCNC(=O)Nc1ccc(C(C)CC)cc1 (stereo unspecified) | 133 |
| CCCc1ccc(NC(=O)NCCCl)cc1 | 23 |
| O=C(NCCCl)Nc1ccc(Br)cc1 | 9 |
| Cc1ccc(NC(=O)NCCCl)cc1 | 23 |
| CC(C)(C)Cc1ccc(NC(=O)NCCCl)cc1 | 36 |
| CCCNC(=O)Nc1ccc(C(C)C)cc1 | 76 |
| CNC(=O)Nc1ccc(C(C)C)cc1 | 400 |
| CCC(C)c1ccc(NC(=O)NC)cc1 (stereo unspecified) | 400 |
| CCCCCc1ccc(NC(=O)NCCCl)cc1 | 12 |
| CC(C)(C)c1ccc(NC(=O)NCCCCl)cc1 | 21 |
| CC[C@@H](CCl)NC(=O)Nc1ccc(C(C)(C)C)cc1 | 109 |
| CCNC(=O)Nc1ccc(C(C)C)cc1 | 400 |
| O=C(NCCCl)Nc1ccc(Cl)cc1 | 14 |
| CC(C)CCc1ccc(NC(=O)NCCCl)cc1 | 33 |
| CCCNC(=O)Nc1ccc(C(C)(C)C)cc1 | 35 |
| CCCCc1ccc(NC(=O)NCCCl)cc1 | 22 |
| CC(C)c1ccc(NC(=O)NCCCl)cc1 | 5 |
| CC[C@H](CCl)NC(=O)Nc1ccc(I)cc1 | 22 |
| O=C(NCCCl)Nc1ccc(I)cc1 | 3.9 |
| CCC(C)c1ccc(NC(=O)NCCCl)cc1 (stereo unspecified) | 3.6 |
| CC[C@H](CCl)NC(=O)Nc1ccc(C(C)C)cc1 | 30 |
| C[C@H](CCl)NC(=O)Nc1ccc2c(c1)-c1ccccc1C2 | 6.6 |
| C[C@H](CCl)NC(=O)Nc1ccc(I)cc1 | 0.85 |
| CC[C@@H](CCl)NC(=O)Nc1ccc(C(C)C)cc1 | 54 |
| C[C@H](CCl)NC(=O)Nc1ccc2c(c1)CCC2 | 6.4 |

What follows are compounds tested on MDA-MB-231 (assay: Antiproliferative activity against human MDA-MB-231 cells).
Assay type: functional

| Compound | GI50 [µM] |
| --- | --- |
| Cc1cc(C)c(NC(=O)NCCCl)c(C)c1 | 587 |
| CCCCCCCCc1ccc(NC(=O)NCCCl)cc1 | 48 |
| Cc1cccc(NC(=O)NCCCl)c1 | 88 |
| CCc1cccc(NC(=O)NCCCl)c1 | 16 |
| CCc1ccccc1NC(=O)NCCCl | 400 |
| CCCCCCCCCCCc1ccc(NC(=O)NCCCl)cc1 | 587 |
| O=C(NCCCl)Nc1cccc2ccccc12 | 220 |

Reference: ChEMBL document CHEMBL1143982, “A comparative molecular field and comparative molecular similarity indices analyses (CoMFA and CoMSIA) of N-phenyl-N'-(2-chloroethyl)ureas targeting the colchicine-binding site as anticancer agents” (2008)
